Patent US6355799B1, “Substituted benzene compounds, process for their preparation, and herbicidal and defoliant compositions containing them” (ISK Americas Incorporated, priority 1997, dated 2002)

Assays:
Assay type in all cases: in vivo
[1] = test system: redroot pigweed (Amaranthus retroflexus, AMARE); assay: Pre-emerge test, greenhouse herbicide activity screening
Method in brief: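 Visual ratings on a 0-100 scale (0 no damage, 100 all plants dead) were taken at 14 days after treatment. Rates of 15-1000 g ai/ha in acetone, 187 l/ha, were sprayed onto soil one day after planting (pre-emerge) or onto 2-3 leaf plants with 0.25% v/v surfactant (post-emerge).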

[2] = test system: field corn (Zea mays L., var. Dekalb 535, CORN); assay: Pre-emerge test, crop safety
Method in brief: (§1)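 Plants grown in 10 cm pots of sandy loam mix received acetone-dissolved compounds through a moving flat-fan nozzle. Doses ranged from 15 to 1000 g ai/ha. Pre-emerge pots were seeded one day earlier, post-emerge pots 8–21 days earlier. Fourteen days on, each pot was graded 0–100 for damage.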

[3] = test system: upland rice (Oryza sp., var. Tebonnet, RICE); assay: Pre-emerge test, crop safety
Method in brief: as §1

[4] = test system: velvetleaf (Abutilon theophrasti, ABUTH); assay: Pre-emerge test, greenhouse herbicide activity screening
Method in brief: as §1

[5] = test system: sicklepod (Cassia obtusifolia, CASOB); assay: as above
Method in brief: as §1

[6] = test system: barnyardgrass (Echinochloa crus-galli, ECHCG); assay: as above
Method in brief: as §1

[7] = test system: johnsongrass (Sorghum halepense, SORHA); assay: as above
Method in brief: as §1

[8] = test system: large crabgrass (Digitaria sanguinalis, DIGSA); assay: as above
Method in brief: as §1

[9] = test system: green foxtail (Setaria viridis, SETVI); assay: as above
Method in brief: as §1

[10] = test system: lambsquarters (Chenopodium album, CHEAL); assay: as above
Method in brief: as §1

[11] = test system: ivyleaf morningglory (Ipomoea hederacea, IPOHE); assay: as above
Method in brief: as §1

[12] = pre-emerge, rate 63 g ai/ha, phytotoxicity rating 0-100 at 14 days after application
[13] = pre-emerge, rate 250 g ai/ha, phytotoxicity rating 0-100 at 14 days after application
[14] = crop damage, pre-emerge, rate 63 g ai/ha, phytotoxicity rating 0-100 at 14 days after application
[15] = crop damage, pre-emerge, rate 250 g ai/ha, phytotoxicity rating 0-100 at 14 days after application
[16] = 63 g ai/ha, phytotoxicity rating 0-100, 14 days after application
[17] = 250 g ai/ha, phytotoxicity rating 0-100, 14 days after application
[18] = 63 g ai/ha, crop damage rating 0-100, 14 days after application
[19] = 250 g ai/ha, crop damage rating 0-100, 14 days after application

SMILES: COc1c(Cl)cc(F)c(-n2nnn(CCCF)c2=O)c1N [Compound 5-3]
- Pre-emerge Herbicidal Activity AMARE [1, 12]: 60
- Pre-emerge Herbicidal Activity AMARE [1, 13]: 100
- Pre-emerge Herbicidal Activity CORN [2, 14]: 0
- Pre-emerge Herbicidal Activity CORN [2, 15]: 0
- Pre-emerge Herbicidal Activity RICE [3, 14]: 20
- Pre-emerge Herbicidal Activity RICE [3, 15]: 20
- Pre-emerge Herbicidal Activity ABUTH [4, 12]: 100
- Pre-emerge Herbicidal Activity ABUTH [4, 13]: 100
- Pre-emerge Herbicidal Activity CASOB [5, 12]: 0
- Pre-emerge Herbicidal Activity CASOB [5, 13]: 30
- Pre-emerge Herbicidal Activity ECHCG [6, 12]: 0
- Pre-emerge Herbicidal Activity ECHCG [6, 13]: 20
- Pre-emerge Herbicidal Activity SORHA [7, 12]: 0
- Pre-emerge Herbicidal Activity SORHA [7, 13]: 95
- Pre-emerge Herbicidal Activity DIGSA [8, 12]: 30
- Pre-emerge Herbicidal Activity DIGSA [8, 13]: 100
- Pre-emerge Herbicidal Activity SETVI [9, 12]: 70
- Pre-emerge Herbicidal Activity SETVI [9, 13]: 100
- Pre-emerge Herbicidal Activity CHEAL [10, 12]: 100
- Pre-emerge Herbicidal Activity CHEAL [10, 13]: 100
- Pre-emerge Herbicidal Activity IPOHE [11, 12]: 0
- Pre-emerge Herbicidal Activity IPOHE [11, 13]: 10

SMILES: COc1c(Cl)cc(F)c(-n2c(=O)cc(C(F)(F)F)n(C)c2=O)c1NC(=O)N(Cc1ccccc1)c1ccccc1 [Compound 3-23]
- Pre-emerge Herbicidal Activity AMARE [1, 16]: 0
- Pre-emerge Herbicidal Activity AMARE [1, 17]: 0
- Pre-emerge Herbicidal Activity CORN [2, 18]: 0
- Pre-emerge Herbicidal Activity CORN [2, 19]: 0
- Pre-emerge Herbicidal Activity RICE [3, 18]: 0
- Pre-emerge Herbicidal Activity RICE [3, 19]: 0
- Pre-emerge Herbicidal Activity ABUTH [4, 16]: 0
- Pre-emerge Herbicidal Activity ABUTH [4, 17]: 40
- Pre-emerge Herbicidal Activity CASOB [5, 16]: 0
- Pre-emerge Herbicidal Activity CASOB [5, 17]: 0
- Pre-emerge Herbicidal Activity ECHCG [6, 16]: 0
- Pre-emerge Herbicidal Activity ECHCG [6, 17]: 0
- Pre-emerge Herbicidal Activity SORHA [7, 16]: 0
- Pre-emerge Herbicidal Activity SORHA [7, 17]: 0
- Pre-emerge Herbicidal Activity DIGSA [8, 16]: 0
- Pre-emerge Herbicidal Activity DIGSA [8, 17]: 0
- Pre-emerge Herbicidal Activity SETVI [9, 16]: 0
- Pre-emerge Herbicidal Activity SETVI [9, 17]: 0
- Pre-emerge Herbicidal Activity CHEAL [10, 16]: 0
- Pre-emerge Herbicidal Activity CHEAL [10, 17]: 70
- Pre-emerge Herbicidal Activity IPOHE [11, 16]: 0
- Pre-emerge Herbicidal Activity IPOHE [11, 17]: 0

SMILES: COc1c(Cl)cc(F)c(-n2c(=O)n3n(c2=O)CCCC3)c1NC(C)=O [9-5]
- Pre-emerge Herbicidal Activity AMARE [1, 12]: 100
- Pre-emerge Herbicidal Activity AMARE [1, 13]: 100
- Pre-emerge Herbicidal Activity CORN [2, 14]: 0
- Pre-emerge Herbicidal Activity CORN [2, 15]: 10
- Pre-emerge Herbicidal Activity RICE [3, 14]: 25
- Pre-emerge Herbicidal Activity RICE [3, 15]: 60
- Pre-emerge Herbicidal Activity ABUTH [4, 12]: 100
- Pre-emerge Herbicidal Activity ABUTH [4, 13]: 100
- Pre-emerge Herbicidal Activity CASOB [5, 12]: 10
- Pre-emerge Herbicidal Activity CASOB [5, 13]: 80
- Pre-emerge Herbicidal Activity ECHCG [6, 12]: 0
- Pre-emerge Herbicidal Activity ECHCG [6, 13]: 30
- Pre-emerge Herbicidal Activity SORHA [7, 12]: 0
- Pre-emerge Herbicidal Activity SORHA [7, 13]: 20
- Pre-emerge Herbicidal Activity DIGSA [8, 12]: 10
- Pre-emerge Herbicidal Activity DIGSA [8, 13]: 40
- Pre-emerge Herbicidal Activity SETVI [9, 12]: 20
- Pre-emerge Herbicidal Activity SETVI [9, 13]: 60
- Pre-emerge Herbicidal Activity CHEAL [10, 12]: 100
- Pre-emerge Herbicidal Activity CHEAL [10, 13]: 100
- Pre-emerge Herbicidal Activity IPOHE [11, 12]: 70
- Pre-emerge Herbicidal Activity IPOHE [11, 13]: 100
